Laboratory results published in patent publication US10329261B1, “Method of preparing 6-chloro-5-nitro-2,4-diaminopyrimidine and its application thereof” (XI'AN TAIKOMED PHARMACEUTICAL TECHNOLOGY CO., LTD., priority 2018, dated 2019).

Columns and labels:
[1] = tested on: Dami; assay: CCK8 assay, growth inhibition of leukemia cells; format: cell-based, human; details: for inhibition at 1 µM / inhibition at 5 µM / inhibition at 10 µM / inhibition at 50 µM / inhibition at 100 µM: Homo sapiens, 48 hours, read-out: Inhibition Rate % (X ± SD, n = 5); for inhibition at 1 µM: 1 μmol/L; for inhibition at 5 µM: 5 μmol/L; for inhibition at 10 µM: 10 μmol/L; for inhibition at 50 µM: 50 μmol/L; for inhibition at 100 µM: 100 μmol/L
Method: (§1) Measuring the Inhibitory Effect of 6-Chloro-5-Nitro-2,4-Diaminopyrimidine on the Growth of Six Leukemia Cells by CCK8 Assay
(§2) Cell lines: HL-60 (acute myeloid leukemia), Jurkat (acute T cell leukemia), K562 (chronic myeloid leukemia), EOL-1 (human eosinophil leukemia), Dami (human megakaryocytic leukemia), 6T-CEM (human T cell leukemia) were provided by the Affiliated Hospital of Guangdong Medical College. The cells were cultured in RPMI1640 medium containing 10% fetal bovine serum, penicillin 100 U/mL, streptomycin 100 mg/L, at 37° C., 5% CO2, and saturated humidity, in incubator, and logarithmic growth phase cells were used for experiments.
(§3) Test compounds: Imatinib solution and 6-chloro-5-nitro-2,4-diaminopyrimidine solution were prepared with physiological saline, and the final concentrations of the compounds were 1, 5, 10, 50, and 100 μmol/L.
(§4) Test method: Take the logarithmic growth leukemia cell lines, count, and inoculate at a density of 1×10^5/mL in a 96-well culture plate, 100 μL per well. After 24 hours of culture, 100 μL medium containing the different concentrations (double the target/final concentration) of compounds was added to each well. The medium containing the highest concentration of DMSO was used as a control. After 48 hours, 20 μL of CCK8 coloring solution was added to each well, the color was developed at 37° C., and OD450 was measured with a microplate reader until the absorbance was about 1.5. The inhibition rate was calculated by the following formula. Inhibition Rate (%)=(1−absorbance of the test compound/absorbance of the control)×100%

[2] = tested on: EOL-1; assay: CCK8 assay, growth inhibition of leukemia cells; format: cell-based, human; details: for inhibition at 1 µM / inhibition at 5 µM / inhibition at 10 µM / inhibition at 50 µM / inhibition at 100 µM: Homo sapiens, EOL1, 48 hours, read-out: Inhibition Rate % (X ± SD, n = 5); for inhibition at 1 µM: EOL-1, 1 μmol/L; for inhibition at 5 µM: EOL-1, 5 μmol/L; for inhibition at 10 µM: EOL-1, 10 μmol/L; for inhibition at 50 µM: EOL-1, 50 μmol/L; for inhibition at 100 µM: EOL-1, 100 μmol/L
Method: as §1, §2, §3, §4

[3] = tested on: 6T-CEM; assay: CCK8 assay, growth inhibition of leukemia cells; format: cell-based, human; details: for inhibition at 1 µM / inhibition at 5 µM / inhibition at 10 µM / inhibition at 50 µM / inhibition at 100 µM: Homo sapiens, 48 hours, read-out: Inhibition Rate % (X ± SD, n = 5); for inhibition at 1 µM: 1 μmol/L; for inhibition at 5 µM: 5 μmol/L; for inhibition at 10 µM: 10 μmol/L; for inhibition at 50 µM: 50 μmol/L; for inhibition at 100 µM: 100 μmol/L
Method: as §1, §2, §3, §4

[4] = tested on: K-562; assay: CCK8 assay, growth inhibition of leukemia cells; format: cell-based; details: for inhibition at 1 µM / inhibition at 5 µM / inhibition at 10 µM / inhibition at 50 µM / inhibition at 100 µM: Homo sapiens, K562, 48 hours, read-out: Inhibition Rate % (X ± SD, n = 5); for inhibition at 1 µM: K-562, 1 μmol/L; for inhibition at 5 µM: K-562, 5 μmol/L; for inhibition at 50 µM: K-562, 50 μmol/L; for inhibition at 100 µM: K-562, 100 μmol/L
Method: as §1, §2, §3, §4

[5] = tested on: HL-60; assay: CCK8 assay, growth inhibition of leukemia cells; format: cell-based; details: for inhibition at 1 µM / inhibition at 5 µM / inhibition at 10 µM / inhibition at 50 µM / inhibition at 100 µM: Homo sapiens, 48 hours, read-out: Inhibition Rate % (X ± SD, n = 5); for inhibition at 1 µM: HL-60, 1 μmol/L; for inhibition at 5 µM: HL-60, 5 μmol/L; for inhibition at 10 µM: HL-60, 10 μmol/L; for inhibition at 50 µM: HL-60, 50 μmol/L; for inhibition at 100 µM: HL-60, 100 μmol/L
Method: as §1, §2, §3, §4

[6] = tested on: Jurkat; assay: CCK8 assay, growth inhibition of leukemia cells; format: cell-based; details: for inhibition at 1 µM / inhibition at 5 µM / inhibition at 10 µM / inhibition at 50 µM / inhibition at 100 µM: Homo sapiens, 48 hours, read-out: Inhibition Rate % (X ± SD, n = 5); for inhibition at 1 µM: 1 μmol/L; for inhibition at 5 µM: 5 μmol/L; for inhibition at 10 µM: 10 μmol/L; for inhibition at 50 µM: 50 μmol/L; for inhibition at 100 µM: 100 μmol/L
Method: as §1, §2, §3, §4

[7] = tested on: K-562 leukemia; assay: Inhibition test of nude mice inoculated with K-562 cell line; format: in vivo; details: for Tumor weight (X ± SE) / Inhibition (%): ip × 7, nude mice with K-562; for Tumor weight (X ± SE): in g (unit assumed); for Inhibition (%): tumor inhibition rate
Method: Inhibition Test of Nude Mice Inoculated with K-562 Cell Line
Test compounds: 6-chloro-5-nitro-2,4-diaminopyrimidine and imatinib dissolved in normal saline.
Administration route: intraperitoneal injection (ip).
Test animals: nude mice, SPF level.
Cell line: chronic myeloid leukemia cell line K-562, from the Affiliated Hospital of Guangdong Medical College
Test method: 50 nude mice weighing 18-22 grams, both male and female. The K-562 cell was diluted to a final concentration of 10 million cells/mL for leukemia cells; each mouse was inoculated subcutaneously with 0.2 mL (containing […] leukemia cells). On the next day, the mice were randomly divided to 5 groups: 6-chloro-5-nitro-2,4-diaminopyrimidine group (dose: 3 mg/kg), 6-chloro-5-nitro-2,4-diaminopyrimidine group (dose: 8 mg/kg), 6-chloro-5-nitro-2,4-diaminopyrimidine group (dose: 20 mg/kg), positive control group (imatinib, 8 mg/kg) and blank control group. The 6-chloro-5-nitro-2,4-diaminopyrimidine groups and the positive control group were administered once a day for 7 consecutive days; the blank control group was given a corresponding volume of NS liquid. No test compounds were given for one day after the last dose. Animals were sacrificed by cervical dislocation, and weighed and dissected to weigh. The tumor weights were calculated for each group. The leukemia inhibition rate was calculated according to the following formula. Tumor inhibition rate=(mean tumor weight in the control group−average tumor weight in the administration group)/mean tumor weight in the control group×100%,

`Nc1nc(N)c([N+](=O)[O-])c(Cl)n1` [6-chloro-5-nitro-2,4-diaminopyrimidine] was tested, and the “inhibitory effect on the cell line (in words)” value (from here on “inhibitory effect”) [1] was “does not show any inhibition”, the inhibition at 1 µM [1] was -14.2% and the inhibition at 5 µM [1] was -17.7%. It also gave an inhibition at 10 µM [1] of -22%, an inhibition at 50 µM [1] of -26% and an inhibition at 100 µM [1] of -30.3%. The “inhibitory effect” value ([2]; EOL-1) was “does not show any inhibition”, the inhibition at 1 µM [2] was -22.4% and the inhibition at 5 µM [2] was -23%. The inhibition at 10 µM [2] was -23.3%, the inhibition at 50 µM [2] was -19.3% and the inhibition at 100 µM [2] was -18.9%. The “inhibitory effect” value [3] was “does not show any inhibition”, the inhibition at 1 µM [3] was -17.5% and the inhibition at 5 µM [3] was -21.1%. For the same compound, the inhibition at 10 µM [3] was -25.5%, the inhibition at 50 µM [3] was -28.1% and the inhibition at 100 µM [3] was -31%. The inhibition at 1 µM [4] was 45.5%, the inhibition at 5 µM [4] was 61.5% and the inhibition at 10 µM ([4]; K-562, 10 μmol/L) was 76.8%. For the same compound, the inhibition at 50 µM [4] was 77.3%, the inhibition at 100 µM [4] was 78.4% and the “inhibition rate compared with imatinib” value ([4]; K-562, 10 μmol/L) was “exceeds that of imatinib”. The “inhibitory effect” value ([4]; K-562 cell line) was “good inhibitory effect”, the “selectivity among the six leukemia cell lines (in words)” value ([4]; K-562 versus HL-60, Jurkat, EOL-1, Dami, 6T-CEM) was “selectively inhibits chronic myelogenous leukemia cell line” and the “inhibitory effect” value ([5]; HL-60) was “does not show any inhibition”. The inhibition at 1 µM [5] was 3.87%, the inhibition at 5 µM [5] was -1.12% and the inhibition at 10 µM [5] was -7.66%. For the same compound, the inhibition at 50 µM [5] was -9.26%, the inhibition at 100 µM [5] was -14.2% and the “inhibitory effect” value [6] was “does not show any inhibition”. The inhibition at 1 µM [6] was -13.5%, the inhibition at 5 µM [6] was -15.9% and the inhibition at 10 µM [6] was -27%. For the same compound, the inhibition at 50 µM [6] was -28.1%, the inhibition at 100 µM [6] was -30% and the “Tumor weight (X ± SE)” value ([7]; 3 mg/kg) was 1.84. The “Tumor weight (X ± SE)” value ([7]; 8 mg/kg) was 0.87, the “Tumor weight (X ± SE)” value ([7]; 20 mg/kg) was 0.74 and the “Inhibition (%)” value ([7]; 3 mg/kg) was 48.41%. For the same compound, the “Inhibition (%)” value ([7]; 8 mg/kg) was 75.18% and the “Inhibition (%)” value ([7]; 20 mg/kg) was 79.34%.

In the case of `Cc1ccc(NC(=O)c2ccc(CN3CCN(C)CC3)cc2)cc1Nc1nccc(-c2cccnc2)n1` [Imatinib, reference compound], the inhibition at 1 µM [1] is reported as 61.3%, the inhibition at 5 µM [1] is reported as 65.4% and the inhibition at 10 µM [1] is reported as 69.3%. The inhibition at 50 µM [1] was 82.1%, the inhibition at 100 µM [1] was 89.4% and the inhibition at 1 µM [2] was 63.6%. For the same compound, the inhibition at 5 µM [2] was 66.2%, the inhibition at 10 µM [2] was 68.4% and the inhibition at 50 µM [2] was 79.1%. It also gave an inhibition at 100 µM [2] of 86.4%, an inhibition at 1 µM [3] of 68.2% and an inhibition at 5 µM [3] of 70.8%. For the same compound, the inhibition at 10 µM [3] was 74.9%, the inhibition at 50 µM [3] was 86.5% and the inhibition at 100 µM [3] was 91.3%. It also gave an inhibition at 1 µM [4] of 66.4%, an inhibition at 5 µM [4] of 67.9% and an inhibition at 10 µM ([4]; K-562, 10 μmol/L) of 71.6%. For the same compound, the inhibition at 50 µM [4] was 83.1%, the inhibition at 100 µM [4] was 88.3% and the inhibition at 1 µM [5] was 62.2%. For the same compound, the inhibition at 5 µM [5] was 69.5%, the inhibition at 10 µM [5] was 64.6% and the inhibition at 50 µM [5] was 83.1%. For the same compound, the inhibition at 100 µM [5] was 84.5%, the inhibition at 1 µM [6] was 66.7% and the inhibition at 5 µM [6] was 71%. It also gave an inhibition at 10 µM [6] of 73.3%, an inhibition at 50 µM [6] of 85.7% and an inhibition at 100 µM [6] of 90.9%. For the same compound, the “Number of mice before and after” value ([7]; 8 mg/kg, ip × 7) was 10/10, the “Tumor weight (X ± SE)” value ([7]; 8 mg/kg) was 0.93 and the Mouse weight after ([7]; 8 mg/kg, ip × 7, weight before 19.5) was 20.4. The “Inhibition (%)” value ([7]; 8 mg/kg) was 74.02%.
